Data from patent US10941114B2, “Small molecule lipid II inhibitors” (University Of Maryland, Baltimore, priority 2015, dated 2021).
Where a name gives a salt, the structure may show the parent alone. Read-outs that look alike come from different tables or passages of the source.

Experiments:
Experiment in all cases: Antibacterial activity assay (MIC, broth dilution)
Assay type in all cases: cell-based
[1] = tested on: Staphylococcus aureus; details: for MIC SA USA300: Staphylococcus aureus USA 300 strain, broth microdilution; for MIC: Staphylococcus aureus, Table 21, read-out: Staphylococcus aureus MIC
[2] = tested on: Enterococcus faecalis; details: for MIC EF 15951: Enterococcus faecalis 15951, broth microdilution; for MIC: Enterococcus faecalis
[3] = tested on: Enterococcus faecium; details: Enterococcus faecium, cation-adjusted Mueller Hinton broth, 10% BHI
Method: Determination of the Minimal Inhibitory Concentrations (MIC) by dilution was carried out by broth dilution according to CLSI standards. See CLSI, Methods for Dilution Antimicrobial Susceptibility Tests for Bacteria That Grow Aerobically; Approved Standard—Eighth Edition. 2009, the contents of which are hereby incorporated by reference. Briefly, the minimum inhibitory concentration MIC, is the lowest concentration of a compound that prevents visible growth of a bacterium, in other words at which it has bacteriostatic activity.
For these tests, cation-adjusted Mueller Hinton broth, containing 10% brain-heart infusion (BHI) was used. Concentrations (MIC) are given in μg/mL. The compound was […].
Compounds were tested for MIC by methods known in the art and described in CLSI, Methods for Dilution Antimicrobial Susceptibility Tests for Bacteria That Grow Aerobically; Approved Standard—Tenth Edition. CLSI document M07-A10. Wayne, Pa.: Clinical and Laboratory Standards Institute, 2015, which is hereby incorporated by reference for these methods.
Selected compounds also were tested by broth microdilution methods known in the art and described in CLSI, Methods for Dilution Antimicrobial Susceptibility Tests for Bacteria That Grow Aerobically; Approved Standard—Tenth Edition. CLSI document M07-A10. Wayne, Pa.: Clinical and Laboratory Standards Institute, 2015, which is hereby incorporated by reference. Structures of selected compounds in the tables are listed below.

[4] = Table 21, read-out: Escherichia feacalis MIC
[5] = cation-adjusted Mueller Hinton broth, 10% BHI, read-out: MIC E. faecalis 51299
[6] = cation-adjusted Mueller Hinton broth, 10% BHI, read-out: MIC E. faecalis 51575
[7] = cation-adjusted Mueller Hinton broth, 10% BHI, read-out: MIC E. faecalis C99707
[8] = read-out: MIC E. faecium C110914
[9] = read-out: MIC E. faecium IH79985

CN(C)c1ccc(/C=C/c2cc(-c3ccc(F)cc3)cc(-c3ccc(F)cc3)[n+]2C)cc1.[I-] [Compound 2jc39-1, (E)-2-(4-(dimethylamino)styryl)-4,6-bis(4-fluorophenyl)-1-methylpyridin-1-ium iodide salt]
MIC SA USA300 [1]: 4 µg/mL
MIC EF 15951 [2]: 4 µg/mL

CN(C)c1ccc(/C=C/c2cc(-c3ccc(N(C)C)cc3)cc(-c3ccc(F)cc3)[n+]2C)cc1.[I-] [Compound 3jc01-1, (E)-4-(4-(dimethylamino)phenyl)-2-(4-(dimethylamino)styryl)-6-(4-fluorophenyl)-1-methylpyridin-1-ium iodide salt]
MIC SA USA300 [1]: 2 µg/mL
MIC EF 15951 [2]: 1 µg/mL

CN(C)c1ccc(/C=C/c2cc(-c3ccc(Cl)cc3)cc(-c3ccc(F)cc3)[n+]2C)cc1.[I-] [Compound 2jc43-1, (E)-4-(4-chlorophenyl)-2-(4-(dimethylamino)styryl)-6-(4-fluorophenyl)-1-methylpyridin-1-ium iodide salt]
MIC SA USA300 [1]: 4 µg/mL
MIC EF 15951 [2]: 2 µg/mL

CN(CCC#N)c1ccc(/C=C/c2cc(-c3ccc(F)cc3)cc(-c3ccc(F)cc3)[n+]2C)cc1.[I-] [Compound 2jc39-2, (E)-2-(4-((2-cyanoethyl)(methyl)amino)styryl)-4,6-bis(4-fluorophenyl)-1-methylpyridin-1-ium iodide salt]
MIC SA USA300 [1]: 16 µg/mL
MIC EF 15951 [2]: 16 µg/mL

CN(C)c1ccc(/C=C/c2cc(-c3ccc(F)c(F)c3)cc(-c3ccc(F)c(F)c3)[o+]2)cc1.F[B-](F)(F)F
MIC [1]: > 64 µg/mL
MIC [2, 4]: > 64 µg/mL

CN(CCC#N)c1ccc(/C=C/c2cc(-c3ccccc3)cc(-c3ccccc3)[o+]2)cc1.F[B-](F)(F)F
MIC [1]: > 64 µg/mL
MIC [2, 4]: > 64 µg/mL

CN(CCC#N)c1ccc(/C=C/c2cc(-c3ccc(C(C)(C)C)cc3)cc(-c3ccc(C(C)(C)C)cc3)[o+]2)cc1.F[B-](F)(F)F
MIC [1]: > 64 µg/mL
MIC [2, 4]: > 64 µg/mL

CN(C)c1ccc(-c2cc(/C=C/c3ccc(N(C)CCC#N)cc3)[n+](C)c(-c3ccc(Br)cc3)c2)cc1.[I-] [Compound 3jc01-4, (E)-2-(4-bromophenyl)-6-(4-((2-cyanoethyl)(methyl)amino)styryl)-4-(4-(dimethylamino)phenyl)-1-methylpyridin-1-ium iodide salt]
MIC SA USA300 [1]: 32 µg/mL
MIC EF 15951 [2]: 32 µg/mL

Cc1ccc(-c2cc(/C=C/c3cc4c5c(c3)CCCN5CCC4)[o+]c(-c3ccc(C)c(C)c3)c2)cc1C [Compound 6jc69-3, (E)-2,4-bis(3,4-dimethylphenyl)-6-(2-(1,2,3,5,6,7-hexahydropyrido[3,2,1-ij]quinolin-9-yl)vinyl)pyrylium boron tetrafluoride salt]
MIC [2, 5]: 1 µg/mL
MIC [2, 6]: 2 µg/mL
MIC [2, 7]: 1 µg/mL
MIC [3, 8]: 2 µg/mL
MIC [3, 9]: 4 µg/mL
MIC ([3]; read-out: MIC E. faecium S1559): 2 µg/mL

CCCN1CCCc2cc(/C=C/c3cc(-c4ccc(F)cc4)cc(-c4ccc(F)cc4)[o+]3)ccc21.F[B-](F)(F)F
MIC [1]: > 64 µg/mL
MIC [2, 4]: > 64 µg/mL

CN(C)c1ccc(/C=C/c2cc(-c3ccc(Cl)cc3)cc(-c3ccc(Br)cc3)[n+]2C)cc1.[I-] [Compound 2jc43-3, (E)-2-(4-bromophenyl)-4-(4-chlorophenyl)-6-(4-(dimethylamino)styryl)-1-methylpyridin-1-ium iodide salt]
MIC SA USA300 [1]: 2 µg/mL
MIC EF 15951 [2]: 2 µg/mL

(E)-4-(4-((2-cyanoethyl)(methyl)amino)phenyl)-2-(4-(dimethylamino)styryl)-6-(4-fluorophenyl)-1-methylpyridin-1-ium iodide salt [Compound 3jc01-5]
MIC SA USA300 [1]: 1 µg/mL
MIC EF 15951 [2]: 4 µg/mL

Cc1ccc(-c2cc(/C=C/c3ccc(N(C)CCC#N)cc3)[o+]c(-c3ccc(C)cc3)c2)cc1.F[B-](F)(F)F
MIC [1]: > 64 µg/mL
MIC [2, 4]: > 64 µg/mL

CN(C)c1ccc(/C=C/c2cc(-c3ccc(I)cc3)cc(-c3ccc(I)cc3)[o+]2)cc1.F[B-](F)(F)F
MIC [1]: > 64 µg/mL
MIC [2, 4]: > 64 µg/mL

CN(CCC#N)c1ccc(/C=C/c2cc(-c3ccc(N(C)CCC#N)cc3)cc(-c3ccc(Br)cc3)[n+]2C)cc1.[I-] [Compound 3jc01-8]
MIC SA USA300 [1]: 1 µg/mL
MIC EF 15951 [2]: 2 µg/mL

CN(C)c1ccc(-c2cc(/C=C/c3ccc(N(C)CCC#N)cc3)[n+](C)c(-c3ccc(F)cc3)c2)cc1.[I-] [Compound 3jc01-2, (E)-2-(4-((2-cyanoethyl)(methyl)amino)styryl)-4-(4-(dimethylamino)phenyl)-6-(4-fluorophenyl)-1-methylpyridin-1-ium iodide salt]
MIC SA USA300 [1]: 32 µg/mL
MIC EF 15951 [2]: 16 µg/mL

CN(CCC#N)c1ccc(/C=C/c2cc(-c3ccc(I)cc3)cc(-c3ccc(I)cc3)[o+]2)cc1.F[B-](F)(F)F
MIC [1]: > 64 µg/mL
MIC [2, 4]: > 64 µg/mL

CN(C)c1ccc(/C=C/c2cc(-c3ccc(F)cc3)cc(-c3ccc(Br)cc3)[n+]2C)cc1.[I-] [Compound 2jc39-3, (E)-2-(4-bromophenyl)-6-(4-(dimethylamino)styryl)-4-(4-fluorophenyl)-1-methylpyridin-1-ium iodide salt]
MIC SA USA300 [1]: 4 µg/mL
MIC EF 15951 [2]: 4 µg/mL

CCN(CCC#N)c1ccc(/C=C/c2cc(-c3ccc(Br)cc3)cc(-c3ccc(Br)cc3)[o+]2)c(C)c1.F[B-](F)(F)F
MIC [1]: > 64 µg/mL
MIC [2, 4]: > 64 µg/mL

CN(CCC#N)c1ccc(/C=C/c2cc(-c3ccc(Cl)cc3)cc(-c3ccc(F)cc3)[n+]2C)cc1.[I-] [Compound 2jc43-2, (E)-4-(4-chlorophenyl)-2-(4-((2-cyanoethyl)(methyl)amino)styryl)-6-(4-fluorophenyl)-1-methylpyridin-1-ium iodide salt]
MIC SA USA300 [1]: 2 µg/mL
MIC EF 15951 [2]: 2 µg/mL

CN(CCC#N)c1ccc(/C=C/c2cc(-c3ccc(C(F)(F)F)cc3)cc(-c3ccc(C(F)(F)F)cc3)[o+]2)cc1.F[B-](F)(F)F
MIC [1]: > 64 µg/mL
MIC [2, 4]: > 64 µg/mL

CN(C)c1ccc(/C=C/c2cc(-c3ccc(N(C)CCC#N)cc3)cc(-c3ccc(Br)cc3)[n+]2C)cc1.[I-] [Compound 3jc01-7]
MIC SA USA300 [1]: 1 µg/mL
MIC EF 15951 [2]: 2 µg/mL

CN(CCC#N)c1ccc(/C=C/c2cc(-c3ccc(F)cc3)cc(-c3ccc(F)cc3)[o+]2)cc1.F[B-](F)(F)F [drawing 385]
MIC [1]: > 64 µg/mL
MIC [2, 4]: > 64 µg/mL

Cc1ccc(-c2cc(/C=C/C=C3/N(C)c4ccccc4C3(C)C)[o+]c(-c3ccc(C)cc3)c2)cc1 [Compound 6jc67A, 2,4-di-p-tolyl-6-((1E,3E)-3-(1,3,3-trimethylindolin-2-ylidene)prop-1-en-1-yl)pyrylium boron tetrafluoride salt]
MIC [2, 5]: 1 µg/mL
MIC [2, 6]: 1 µg/mL
MIC [2, 7]: 1 µg/mL
MIC [3, 8]: 1 µg/mL
MIC [3, 9]: 2 µg/mL
MIC ([3]; read-out: MIC E. faecium S1559): 1 µg/mL

CCN(CC)c1ccc(/C=C/c2cc(-c3ccc(F)cc3)cc(-c3ccc(F)cc3)[o+]2)c(O)c1.F[B-](F)(F)F
MIC [1]: 64 µg/mL
MIC [2, 4]: > 64 µg/mL

CN(CCC#N)c1ccc(/C=C/c2cc(-c3ccc(Br)cc3)cc(-c3ccc(Br)cc3)[o+]2)cc1.F[B-](F)(F)F
MIC [1]: > 64 µg/mL
MIC [2, 4]: > 64 µg/mL

CCc1ccc(-c2cc(/C=C/c3cc4c5c(c3)CCCN5CCC4)[o+]c(-c3ccc(CC)cc3)c2)cc1 [Compound 6jc69-1, (E)-2,4-bis(4-ethylphenyl)-6-(2-(1,2,3,5,6,7-hexahydropyrido[3,2,1-ij]quinolin-9-yl)vinyl)pyrylium boron tetrafluoride salt]
MIC [2, 5]: 1 µg/mL
MIC [2, 6]: 2 µg/mL
MIC [2, 7]: 1 µg/mL
MIC [3, 8]: 4 µg/mL
MIC [3, 9]: 8 µg/mL
MIC ([3]; read-out: MIC E. faecium S1559): 2 µg/mL

CN(CCC#N)c1ccc(/C=C/c2cc(-c3ccc(Cl)cc3)cc(-c3ccc(Br)cc3)[n+]2C)cc1.[I-] [Compound 2jc43-4, (E)-2-(4-bromophenyl)-4-(4-chlorophenyl)-6-(4-((2-cyanoethyl)(methyl)amino)styryl)-1-methylpyridin-1-ium iodide salt]
MIC SA USA300 [1]: 32 µg/mL
MIC EF 15951 [2]: 16 µg/mL

CCN(CCC#N)c1ccc(/C=C/c2cc(-c3ccc(F)cc3)cc(-c3ccc(F)cc3)[o+]2)c(C)c1.F[B-](F)(F)F
MIC [1]: > 64 µg/mL
MIC [2, 4]: > 64 µg/mL

CN(CCC#N)c1ccc(/C=C/c2cc(-c3ccc(F)c(F)c3)cc(-c3ccc(F)c(F)c3)[o+]2)cc1.F[B-](F)(F)F
MIC [1]: > 64 µg/mL
MIC [2, 4]: > 64 µg/mL

CN(CCC#N)c1ccc(/C=C/c2cc(-c3ccc(N(C)CCC#N)cc3)cc(-c3ccc(F)cc3)[n+]2C)cc1.[I-] [Compound 3jc01-6, (E)-4-(4-((2-cyanoethyl)(methyl)amino)phenyl)-2-(4-((2-cyanoethyl)(methyl)amino)styryl)-6-(4-fluorophenyl)-1-methylpyridin-1-ium iodide salt]
MIC SA USA300 [1]: 1 µg/mL
MIC EF 15951 [2]: 8 µg/mL
